Experimental data reported in patent US20230151003A1, “COMPOUNDS AND METHODS OF USE” (Exelixis, Inc., priority 2020, published 2023).

What was measured:
Assay type in all cases: cell-based
Met = Met (Homo sapiens, UniProt P08581); assay: Met autophosphorylation ELISA in PC-3 cells; design: endogenous in cells; host or cells: PC-3 prostate cancer cells (ATCC #CRL-1435); conditions: Table 3 Cellular Activities, HGF-stimulated, phospho-Met ELISA, read-out: c-Met IC50
Procedure: PC-3 prostate cancer cells (ATCC #CRL-1435) were seeded at 4×10^4 cells/well onto 24-well plates (Greiner #662165), in DMEM (Thermo Fisher #11995-040) containing 10% FBS (Thermo Fisher #26140-079), 1% MEM NEAA (Thermo Fisher #11140-050), 1% GlutaMax (Thermo Fisher #35050-061), and 1% Penicillin Streptomycin (Thermo Fisher #15140-122). PC-3 cells were incubated at 37° C., 5% CO2 for 24 h and then starved for 3 h in serum-free medium. Test compounds were serially diluted to produce an 8-point dose curve in fresh serum-free medium to a final concentration of 0.3% DMSO (vehicle) and added to the cells and incubated for 1 h. Cells were then stimulated with 100 ng/mL recombinant human HGF (R&D Systems #294-HG-250) for 10 min, washed with cold PBS, and immediately lysed with 130 μL of cold 1× lysis buffer [20 mM Tris, 137 mM sodium chloride, 2 mM EDTA, 10% glycerol, 1% NP-40 alternative, 1 mM activated sodium orthovanadate, 1 mM PefaBloc SC (Sigma-Aldrich #11429868001), protease/phosphatase inhibitor tablet (Thermo Fisher #A32959)]. Lysates were clarified by centrifugation and 100 μL/well added into the PathScan phospho-Met (panTyr) Sandwich ELISA (Cell Signaling Technology #7333). Assay was performed according to manufacturer's instructions. Positive control wells (100% activity) contained HGF-stimulated, DMSO-treated cell lysates. Negative control wells (0% activity) contained HGF-stimulated, reference inhibitor-treated cell lysates. IC50 values were calculated by nonlinear regression analysis using a 4-parameter logistic curve fit in ActivityBase XE (IDBS).

KDR = KDR (Homo sapiens, UniProt P35968); assay: KDR autophosphorylation ELISA in HUVEC cells; design: endogenous in cells; host or cells: HUVEC (Lonza #C2519A); conditions: Table 3 Cellular Activities, VEGF165-stimulated, phospho-KDR ELISA
Procedure: Human umbilical vein endothelial cells or HUVEC (Lonza #C2519A) were seeded at 2×10^4 cells/well onto 96-well plates (Corning #3904), in EGM-2 growth medium (Lonza #CC-3162) containing 1% Penicillin Streptomycin (Thermo Fisher #15140-122). HUVEC cells were incubated at 37° C., 5% CO2 for 24 h and then starved for 24 h in serum-free EBM-2 basal medium (Lonza #CC-3156) containing 1% Penicillin Streptomycin. Test compounds were serially diluted to produce an 8-point dose curve in fresh serum-free medium to a final concentration of 0.3% DMSO (vehicle) and added to the cells and incubated for 1 h. Cells were then stimulated with 100 ng/mL recombinant human VEGF165 (R&D Systems #293-VE-500) for 5 min, washed with cold PBS, and immediately lysed with 130 μL of cold 1× lysis buffer [20 mM Tris, 137 mM sodium chloride, 2 mM EDTA, 10% glycerol, 1% NP-40 alternative, 1 mM activated sodium orthovanadate, 1 mM PefaBloc SC (Sigma-Aldrich #11429868001), protease/phosphatase inhibitor tablet (Thermo Fisher #A32959)]. Lysates were collected and 100 μL/well added into the human phospho-KDR DuoSet IC ELISA (R&D Systems #DYC1766-2). Assay was performed according to manufacturer's instructions and sample phospho-KDR concentrations were extrapolated using human phospho-KDR control (R&D Systems #841421) as a standard. Positive control wells (100% activity) contained VEGF165-stimulated, DMSO-treated cell lysates. Negative control wells (0% activity) contained non-stimulated cell lysates. IC50 values were calculated by nonlinear regression analysis using a 4-parameter logistic curve fit in ActivityBase XE (IDBS).

Mer = molecular target: T1, Mer (Homo sapiens, UniProt Q12866); assay: Mer autophosphorylation ELISA in transient transfected 293A cells; conditions: Table 3 Cellular Activities; MERTK-transfected 293A cells, phospho-Mer ELISA
T1 construct: host or cells: 293A cells (Thermo Fisher #R70507)
T1 sequence (Q12866 21-999): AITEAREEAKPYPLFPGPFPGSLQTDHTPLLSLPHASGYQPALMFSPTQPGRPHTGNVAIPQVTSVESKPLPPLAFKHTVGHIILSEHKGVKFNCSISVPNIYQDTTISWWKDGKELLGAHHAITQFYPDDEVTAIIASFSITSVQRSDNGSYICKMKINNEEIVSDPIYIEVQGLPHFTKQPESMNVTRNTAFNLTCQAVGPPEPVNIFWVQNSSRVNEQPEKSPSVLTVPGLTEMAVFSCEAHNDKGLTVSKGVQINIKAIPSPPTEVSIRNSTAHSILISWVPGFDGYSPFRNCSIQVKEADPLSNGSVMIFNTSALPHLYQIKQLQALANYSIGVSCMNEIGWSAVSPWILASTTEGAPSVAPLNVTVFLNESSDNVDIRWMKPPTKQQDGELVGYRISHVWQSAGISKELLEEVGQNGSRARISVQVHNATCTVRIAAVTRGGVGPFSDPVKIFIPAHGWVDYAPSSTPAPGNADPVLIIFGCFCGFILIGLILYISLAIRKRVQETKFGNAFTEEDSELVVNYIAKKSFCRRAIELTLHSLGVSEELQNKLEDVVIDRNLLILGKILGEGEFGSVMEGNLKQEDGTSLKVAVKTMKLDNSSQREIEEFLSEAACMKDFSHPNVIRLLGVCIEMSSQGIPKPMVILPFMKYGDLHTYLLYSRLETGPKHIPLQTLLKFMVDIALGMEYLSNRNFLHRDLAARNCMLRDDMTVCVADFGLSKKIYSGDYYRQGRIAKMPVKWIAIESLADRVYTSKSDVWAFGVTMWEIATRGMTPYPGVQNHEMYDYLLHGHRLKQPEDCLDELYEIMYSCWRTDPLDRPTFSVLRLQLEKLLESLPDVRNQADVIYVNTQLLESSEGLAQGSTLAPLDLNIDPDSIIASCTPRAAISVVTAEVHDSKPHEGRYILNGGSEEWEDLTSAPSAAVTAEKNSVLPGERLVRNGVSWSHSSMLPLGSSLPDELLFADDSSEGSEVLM
Procedure: 293A cells (Thermo Fisher #R70507) were seeded at 1.5×10^6 cells/well onto 100 mm dish (Greiner #664169), in DMEM (Thermo Fisher #11995-040) containing 10% FBS (Thermo Fisher #26140-079), 1% MEM NEAA (Thermo Fisher #11140-050), 1% GlutaMax (Thermo Fisher #35050-061), and 1% Penicillin Streptomycin (Thermo Fisher #15140-122). 293A cells were incubated at 37° C., 5% CO2 for 24 h and then transfected with 6μg MERTK DNA (Genecopoeia #EX-Z8208-M02) using TransIT LT1 transfection reagent (Mirus-Bio #MIR2305). After 24 h incubation, the transfected 293A cells were seeded at 1×10^5 cells/well onto 96-well plates (Corning #3904) in DMEM growth medium overnight. Test compounds were serially diluted to produce an 8-point dose curve in fresh serum-free medium to a final concentration of 0.3% DMSO (vehicle) and added to the cells and incubated for 1 h. Cells were then immediately lysed with 150 μL of cold 1× lysis buffer […], 137 mM sodium chloride, 2 mM EDTA, 10% glycerol, 1% NP-40 alternative, 1 mM activated sodium orthovanadate, 1 mM PefaBloc SC (Sigma-Aldrich #11429868001), protease/phosphatase inhibitor tablet (Thermo Fisher #A32959)]. Lysates were clarified by centrifugation and 50 μL/well added into the human phospho-Mer DuoSet IC ELISA (R&D Systems #DYC2579-2). Assay was performed according to manufacturer's instructions and sample phospho-Mer concentrations were extrapolated using human phospho-Mer control (R&D Systems #841793) as a standard. Positive control wells (100% activity) contained DMSO-treated cell lysates. Negative control wells (0% activity) contained reference inhibitor-treated cell lysates. IC50 values were calculated by nonlinear regression analysis using a 4-parameter logistic curve fit in ActivityBase XE (IDBS).

Chain of Met (P08581 25-1390): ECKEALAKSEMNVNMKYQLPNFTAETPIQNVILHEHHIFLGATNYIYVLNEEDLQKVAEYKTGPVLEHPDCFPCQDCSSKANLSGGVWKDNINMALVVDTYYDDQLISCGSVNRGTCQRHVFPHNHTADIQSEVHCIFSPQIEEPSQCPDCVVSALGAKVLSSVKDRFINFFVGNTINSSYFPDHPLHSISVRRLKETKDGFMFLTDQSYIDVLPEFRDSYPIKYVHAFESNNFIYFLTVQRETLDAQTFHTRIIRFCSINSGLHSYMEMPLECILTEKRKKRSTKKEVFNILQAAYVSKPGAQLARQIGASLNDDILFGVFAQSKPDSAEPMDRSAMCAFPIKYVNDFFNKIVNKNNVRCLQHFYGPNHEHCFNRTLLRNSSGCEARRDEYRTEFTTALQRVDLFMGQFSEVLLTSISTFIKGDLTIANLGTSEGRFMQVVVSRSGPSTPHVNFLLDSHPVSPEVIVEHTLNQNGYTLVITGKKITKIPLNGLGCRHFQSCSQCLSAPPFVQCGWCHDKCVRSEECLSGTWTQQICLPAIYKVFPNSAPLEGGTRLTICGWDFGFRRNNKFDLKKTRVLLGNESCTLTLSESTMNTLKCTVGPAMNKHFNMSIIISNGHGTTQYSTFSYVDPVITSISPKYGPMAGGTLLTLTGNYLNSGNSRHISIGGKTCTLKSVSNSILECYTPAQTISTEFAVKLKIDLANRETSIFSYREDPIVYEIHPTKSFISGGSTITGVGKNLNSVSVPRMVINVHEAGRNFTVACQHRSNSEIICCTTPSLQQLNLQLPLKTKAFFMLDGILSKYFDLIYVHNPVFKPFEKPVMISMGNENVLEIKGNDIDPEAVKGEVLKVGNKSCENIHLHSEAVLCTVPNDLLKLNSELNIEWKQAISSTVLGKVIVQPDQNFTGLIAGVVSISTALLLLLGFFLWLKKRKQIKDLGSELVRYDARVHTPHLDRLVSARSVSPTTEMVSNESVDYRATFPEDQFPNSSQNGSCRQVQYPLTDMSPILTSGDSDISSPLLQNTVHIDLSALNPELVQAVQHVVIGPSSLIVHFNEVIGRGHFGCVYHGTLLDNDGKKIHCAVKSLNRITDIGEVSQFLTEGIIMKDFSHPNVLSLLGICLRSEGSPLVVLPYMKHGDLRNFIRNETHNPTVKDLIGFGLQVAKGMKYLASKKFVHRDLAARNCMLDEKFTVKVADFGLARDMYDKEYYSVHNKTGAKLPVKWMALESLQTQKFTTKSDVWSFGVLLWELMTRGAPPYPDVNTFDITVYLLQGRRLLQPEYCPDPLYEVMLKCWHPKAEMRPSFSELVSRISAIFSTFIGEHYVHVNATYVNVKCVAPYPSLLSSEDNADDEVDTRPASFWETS
Chain of KDR (P35968 20-1356): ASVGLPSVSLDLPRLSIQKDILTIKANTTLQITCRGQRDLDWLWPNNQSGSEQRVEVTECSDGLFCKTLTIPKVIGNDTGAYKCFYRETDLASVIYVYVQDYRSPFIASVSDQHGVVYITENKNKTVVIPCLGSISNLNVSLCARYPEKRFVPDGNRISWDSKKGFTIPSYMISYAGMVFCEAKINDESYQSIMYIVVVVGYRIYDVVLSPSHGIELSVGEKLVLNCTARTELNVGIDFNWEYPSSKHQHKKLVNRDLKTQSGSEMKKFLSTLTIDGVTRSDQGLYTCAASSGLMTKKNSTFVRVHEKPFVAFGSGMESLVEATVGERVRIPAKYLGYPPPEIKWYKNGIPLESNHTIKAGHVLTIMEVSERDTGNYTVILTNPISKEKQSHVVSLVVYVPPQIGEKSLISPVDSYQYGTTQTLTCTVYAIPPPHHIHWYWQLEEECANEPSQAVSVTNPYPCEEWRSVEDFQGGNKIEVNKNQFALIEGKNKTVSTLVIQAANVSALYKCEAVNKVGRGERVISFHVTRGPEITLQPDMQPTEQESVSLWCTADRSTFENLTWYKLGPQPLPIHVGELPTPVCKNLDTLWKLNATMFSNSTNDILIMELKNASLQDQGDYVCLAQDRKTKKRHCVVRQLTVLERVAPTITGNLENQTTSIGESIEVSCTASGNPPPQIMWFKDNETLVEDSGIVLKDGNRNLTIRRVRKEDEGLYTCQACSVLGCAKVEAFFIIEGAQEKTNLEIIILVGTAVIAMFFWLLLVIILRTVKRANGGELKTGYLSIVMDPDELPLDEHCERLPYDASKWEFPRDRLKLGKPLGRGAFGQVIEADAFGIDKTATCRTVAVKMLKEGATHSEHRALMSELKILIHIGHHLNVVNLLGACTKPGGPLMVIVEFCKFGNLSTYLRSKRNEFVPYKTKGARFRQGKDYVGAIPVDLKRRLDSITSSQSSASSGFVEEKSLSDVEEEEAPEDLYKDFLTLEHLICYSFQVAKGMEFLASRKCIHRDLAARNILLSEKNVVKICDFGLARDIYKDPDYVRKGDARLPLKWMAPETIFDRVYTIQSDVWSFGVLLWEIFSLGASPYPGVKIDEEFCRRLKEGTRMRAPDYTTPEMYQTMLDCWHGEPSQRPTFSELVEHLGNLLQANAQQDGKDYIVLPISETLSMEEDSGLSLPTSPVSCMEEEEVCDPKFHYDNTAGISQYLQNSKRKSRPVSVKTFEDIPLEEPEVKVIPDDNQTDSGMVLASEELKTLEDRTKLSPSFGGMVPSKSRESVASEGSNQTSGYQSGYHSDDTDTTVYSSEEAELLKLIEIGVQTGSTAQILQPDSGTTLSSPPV

Structure (SMILES)	IC50 (Met) [µM]	IC50 (KDR) [µM]	IC50 (Mer) [µM]
CCOc1ccc(-n2c(C)ccc(C(=O)Nc3ccc(Oc4ccnc5cc(OC)cnc45)c(F)c3)c2=O)nc1 [Compound 213, 1-(5-Ethoxypyridin-2-yl)-N-[3-fluoro-4-[(7-methoxy-1,5-naphthyridin-4-yl)oxy]phenyl]-6-methyl-2-oxopyridine-3-carboxamide]	0.3 to 1	–	–
COc1cc2nccc(Oc3ccc(NC(=O)c4c5n(cc(-c6ccsc6)c4=O)CCOC5)cc3F)c2nc1OC [Compound 300, N-[4-[(6,7-Dimethoxy-1,5-naphthyridin-4-yl)oxy]-3-fluorophenyl]-8-oxo-7-thiophen-3-yl-3,4-dihydro-1H-pyrido[2,1-c][1,4]oxazine-9-carboxamide]	≤ 0.1	0.1 to 0.3	≤ 0.1
COc1cc2nccc(Oc3ccc(NC(=O)c4c5n(c(C)c(-c6cc(C)cs6)c4=O)CCOC5)cc3)c2nc1OC [Compound 313, N-[4-[(6,7-Dimethoxy-1,5-naphthyridin-4-yl)oxy]phenyl]-6-methyl-7-(4-methylthiophen-2-yl)-8-oxo-3,4-dihydro-1H-pyrido[2,1-c][1,4]oxazine-9-carboxamide]	0.1 to 0.3	–	≤ 0.1
COc1cc2nccc(Oc3ccc(NC(=O)c4c5n(c(C)c(-c6cccs6)c4=O)CCOC5)cc3)c2nc1OC [Compound 316, N-[4-[(6,7-Dimethoxy-1,5-naphthyridin-4-yl)oxy]phenyl]-6-methyl-8-oxo-7-thiophen-2-yl-3,4-dihydro-1H-pyrido [2,1-c][1,4]oxazine-9-carboxamide]	≤ 0.1	–	≤ 0.1
COc1cc2nccc(Oc3ccc(NC(=O)c4c(C)ncc(-c5ccc(C)s5)c4O)cc3F)c2nc1OC [Compound 124, N-[4-[(6,7-Dimethoxy-1,5-naphthyridin-4-yl)oxy]-3-fluorophenyl]-4-hydroxy-2-methyl-5-(5-methylthiophen-2-yl)pyridine-3-carboxamide]	≤ 0.1	≤ 0.1	≤ 0.1
CCOc1ccc(-n2c(C)ccc(C(=O)Nc3ccc(Oc4ccnc5cc(OC)c(OC)nc45)c(F)c3)c2=O)nc1 [Compound 212, N-[4-[(6,7-Dimethoxy-1,5-naphthyridin-4-yl)oxy]-3-fluorophenyl]-1-(5-ethoxypyridin-2-yl)-6-methyl-2-oxopyridine-3-carboxamide]	0.1 to 0.3	–	–
COc1cc2nccc(Oc3ccc(NC(=O)c4c5n(cc(-c6ccsc6)c4=O)CCOC5)cc3)c2nc1OC [Compound 301, N-[4-[(6,7-Dimethoxy-1,5-naphthyridin-4-yl)oxy]phenyl]-8-oxo-7-thiophen-3-yl-3,4-dihydro-1H-pyrido[2,1-c][1,4]oxazine-9-carboxamide]	≤ 0.1	0.3 to 1	≤ 0.1
COc1cc2nccc(Oc3ccc(NC(=O)c4c5n(c(C)c(-c6ccsc6)c4=O)CCOC5)cc3)c2nc1OC [Compound 312, N-[4-[(6,7-Dimethoxy-1,5-naphthyridin-4-yl)oxy]phenyl]-6-methyl-8-oxo-7-thiophen-3-yl-3,4-dihydro-1H-pyrido [2,1-c][1,4]oxazine-9-carboxamide]	≤ 0.1	–	≤ 0.1
COc1cc2nccc(Oc3ccc(NC(=O)c4c5n(c(C)c(-c6ccoc6)c4=O)CCOC5)cc3)c2nc1OC [Compound 311, N-[4-[(6,7-Dimethoxy-1,5-naphthyridin-4-yl)oxy]phenyl]-7-(furan-3-yl)-6-methyl-8-oxo-3,4-dihydro-1H-pyrido[2,1-c][1,4]oxazine-9-carboxamide]	≤ 0.1	–	≤ 0.1
COc1cc2nccc(Oc3ccc(NC(=O)c4c5n(c(C)c(-c6ccco6)c4=O)CCOC5)cc3F)c2nc1OC [Compound 314, N-[4-[(6,7-Dimethoxy-1,5-naphthyridin-4-yl)oxy]-3-fluorophenyl]-7-(furan-2-yl)-6-methyl-8-oxo-3,4-dihydro-1H-pyrido[2,1-c][1,4]oxazine-9-carboxamide]	≤ 0.1	–	≤ 0.1
COc1cc2nccc(Oc3ccc(NC(=O)c4c5n(c(C)c(-c6ccco6)c4=O)CCOC5)cc3)c2nc1OC [Compound 315, N-[4-[(6,7-Dimethoxy-1,5-naphthyridin-4-yl)oxy]phenyl]-7-(furan-2-yl)-6-methyl-8-oxo-3,4-dihydro-1H-pyrido[2,1-c][1,4]oxazine-9-carboxamide]	≤ 0.1	–	≤ 0.1
